# Test results: patent US20250177448A1, “NEW USE OF PEG-PHOSPHOLIPID MOLECULES” (ICOAT MEDICAL AB, priority 2022, published 2025)
# Entries after “also recorded” stand apart in the source; their conditions may differ.
# What was measured:
# blood group B antigen = experiment: Anti-blood group B antigen antibody binding to coated human erythrocytes, flow cytometry; assay type: cell-based; details: blood type B RBCs, 2 mg/ml in PBS, 30 min room temperature
# Method: Human erythrocytes were isolated from healthy human donors. They were pre-selected for specific blood types and only individuals exposing blood type B antigens were used. Human blood was drawn from the donors using a vacuum blood collection tube (5 mL, EDTA-2Na treated, TERUMO Co., Tokyo, Japan).
# After plasma and buffy coat were removed by centrifugation (15 min, 2500×g, 3 times), the erythrocytes were re-suspended in cold PBS.
# This Example was approved by ethical committee of the University of Tokyo (KE17-13). Human red blood cells (RBC) were isolated from whole blood of a type-B donor and suspended in phosphate-buffered saline (PBS). A cell pellet of RBCs (5×10^7 cells) was incubated with PEG-phospholipid (20 μl, 2 mg/ml in PBS) or PBS (50 μl, as control) for 30 min at room temperature (RT, 20-25° C.) with gentle mixing. After wash with PBS by centrifugation (120×g, 4° C., 1 min) twice, Alexa488-labeled anti-blood group B antigen antibody (10 μl, used without dilution, Blood Group B antigen antibody [HEB-29], GeneTex) or PBS (10 μl) was mixed with the treated RBCs for 10 min at RT. After washing with PBS by centrifugation (120×g, 4° C., 1 min), RBC were re-suspended with PBS (1 ml) for flow cytometry measurements. […] Post analysis processing was carried out in FlowJo (BD).
# [1] = pig, in vivo
# Method: Before surgery for both long term survival studies (SM and CLSM), samples were collected in EDTA tubes from both donors and recipients for analyses of total and differential white blood cell counts and hematology (EPK, Hb, EVF, MCV, MCHC, reticulocytes, thrombocytes). Plasma samples were analyzed for aspartate amino transferase (ASAT), alanine aminotransferase (ALAT), γ-glutamyltransferase (GT), glutamate dehydrogenase (GLDH), and creatinine at the Section of Clinical Chemistry, SLU, Uppsala.
# Clinical appearance was assessed several times each day after surgery and a thorough clinical examination conducted once daily. The urinary bladders were examined every day at 9 am and […] to determine if the transplanted kidney produced urine. When possible, free-flow urine was collected and evaluated macroscopically, and density, pH, blood and protein were measured.
# Each kidney was examined once after transplantation by ultrasound (Logiq e R6, GE Healthcare, Wauwatosa, U.S.A.) using linear (10 MHZ) and curvilinear (4 MHZ) probes. The length and echogenicity of the kidney as well as the corticomedullary definition were estimated. Furthermore, it was assessed whether the renal pelvic region was dilated. The blood flow in the kidney was evaluated using color Doppler. […]
# [2] = tested on: porcine kidney transplant, ischemia reperfusion injury; experiment: Porcine clinical-like allogeneic survival transplantation model (CLSM); assay type: in vivo, pig; details: not shown
# Text: During and after surgery, systemic blood was collected for up to 4 days and analyzed for creatinine, sodium, potassium and phosphate (Section for Clinical Chemistry, Uppsala University Hospital).
# These studies were approved by the Ethics Committee for Animal Experimentation, Uppsala, Sweden, Dnr C123/14. For each of these studies (SM and CLSM) five donor pigs and 10 recipient pigs of both sexes were used. All pigs were certified SPF pigs (Yorkshire×Hampshire) and bred at Lövsta University herd, SLU, Sweden. At arrival to SLU the pigs were 8 weeks old.
# For the SM study, the pigs were selected after typing for Swine Leucocyte Antigen (SLA) class 1 in the following manner: the donor pigs were obtained from two litters and not related to any of the recipients. The recipient pigs were siblings, matched in pairs according to SLA class 1 (see below). For the CLSM study, all recipient pigs were siblings and not related to the donors, but these the pigs were not SLA-typed.
# CLSM study: In this study, the retrieval of the kidney resembled the standard operative procedure of human organ procurement. Each donor was randomized to either PEG-phospholipid or HTK treatment. […]
# The recipient pigs underwent allogeneic single kidney transplantation. […] By using a urine stick the sample was analyzed for proteinurea and hematuria. […]
# [3] = Vascular and tubular distribution and detachment of PEG-phospholipid in vivo (transplanted pig kidney)
# Method: Full information on donor and recipient pigs is given in Example 5. […] Four recipient pigs were transplanted with biotin-PEG-phospholipid-treated kidneys. Their native kidneys were not removed and remained in the animals throughout the study. The four recipient pigs were euthanized after 12, 24, 48 and 72 h, respectively and biopsies were taken at euthanasia from the biotin-PEG-phospholipid treated kidney and one of the native kidneys. Frozen sections (4 μm thickness) were incubated in Alexa488-streptavidin (GE Healthcare, 1:500) at RT for 10 min. The sections were analyzed by laser-scanning confocal microscopy (LSM510, META, Carl Zeiss, Germany).
# Frozen sections (4 μm thickness) of kidneys treated with biotin-PEG-phospholipid and control kidneys were incubated in Alexa488-streptavidin (GE Healthcare, 1:500) at RT for 10 min. The sections were analyzed by laser-scanning confocal microscopy (LSM510, META, Carl Zeiss, Germany).
substance,measurement,setting,value
"N-(methylpolyoxyethylene oxycarbonyl)-1,2-dipalmitoyl-sn-glycero-3-phosphoethanolamine [PEG-phospholipid]",binding capacity of anti-blood group B antigen-antibody,blood group B antigen,effectively reduced; also recorded: effective masking
same,"toxicity or safety concerns regarding clinical, laboratory, or pathology parameters",[1],No toxicity or safety concerns
same,"complement and coagulation markers (C3a, sC5b-9, TAT, C3b)",[2]; displaying lower values,confirmed these results
same,cytokines / systemic inflammation,[2],confirmed these results
same,t½ of PEG-phospholipid calculated from fluorescence images,"[3]; pig kidney, biotin-labeled PEG-phospholipid, 95% confidence interval 8-26",14 h
same,systemic leakage of PEG-phospholipid (autologous kidneys of the recipient),[3]; reliably detected only after 1 hour,very low
